Where two headings read alike, the source gives them in different places.
How the values were obtained:
[1] = In vivo pharmacokinetics in plasma; settings: mice; for AUC: mouse, plasma
Method: The pharmacokinetic of CB-03-06 was evaluated in plasma of mice after intravenous (iv), subcutaneous (SC) and oral administration (PO).
Mice (3 per group) were administered with the following doses and blood was collected at the indicated times. Plasma samples were analyzed by HPLC-MS/MS.

MDA-MB-231 = test: In vitro proliferation / cytotoxic assay on breast cancer cells (Examples 14, 25); assay type: cell-based; settings: Homo sapiens
Method: Data shown in Table I were fitted through sigmoidal dose response curves and analyzed using Prizm statistical.
For the cytotoxic assay, cells were seeded in 96-well flat bottom culture plates in media containing charcoal stripped serum. After 24 hours, test compounds were added to the cells. DMSO was used as the vehicle negative control and RU486 as the positive control. After 72 hour incubation, cells were harvested and lysed to determine cell viability using the Cell Titer Glow assay.

MiaPaca2 = test: Cell cycle arrest, propidium iodide staining; assay type: cell-based; settings: 24 hours, different concentrations
Method: Apoptosis can occur at the G1/S or G2/M transition of the cell cycle. Cells were treated with CB-03-10 for 24 hours then fixed with paraformaldehyde and stained with propidium iodide. […] The lack of G1 block indicates no effect on p53. The S & G2/M blocks may indicate activity on cell cycle check point molecules. For S phase, a possible target is the cyclin dependent kinase 2 (CDK2). Gemzar and cisplatin are example drugs that act in S phase. For G2, a possible target is CDK1.

Structure (SMILES): C[C@]12CCC(=O)C=C1CC[C@@H]1[C@@H]2CC[C@@]2(C)[C@H]1CC[C@]2(OC(=O)c1ccccc1)C(=O)CO [CB-03-06, cortexolone 17α-benzoate]
- body exposure relative to subcutaneous administration ([1]; intravenously): 50%
- body exposure relative to subcutaneous administration ([1]; orally): 17%
- AUC ([1]; PO 40 mg/kg): 276 ng·h/mL
- AUC ([1]; SC 40 mg/kg): 1620 ng·h/mL
- AUC ([1]; iv 20 mg/kg): 896 ng·h/mL
- IC50 (MDA-MB-231; MDA-MB-231, 72 h): 46 µM
- IC50 (MDA-MB-231; MDA-MB-231, read-out: in vitro proliferation IC50): 46 µM
- cell cycle arrest (MiaPaca2): induces an S phase block at lower concentrations then a G2/M block at higher concentration

Reference: US10231980B2, “Cortexolone 17alpha-benzoate for use in the treatment of tumours” (COSMO TECHNOLOGIES LTD., priority 2014, dated 2019)
